Results as given in patent EP4656642A1, “ESTROGEN RECEPTOR PROTEOLYSIS TARGETING CHIMERA COMPOUND AND USE THEREOF” (GAN & LEE PHARM CO., LTD, priority 2023, dated 2024).
pIC50: −log10 of the molar value.

Assays:
Format in all cases: cell-based
T-47D cells = assay: Inhibition of cell proliferation in T-47D cells (CCK-8, 6 days); conditions: 6 days of treatment, Table 3
Excerpt: Test Example 2: Inhibitory effect of the PROTAC compounds provided in the present disclosure on cell proliferation in T-47D cells (source ATCC)
The complete medium required for T-47D cells was 1640 ( ATCC, Product number: A10491-01) basal medium containing 10% fetal bovine serum. T-47D cells were inoculated in 96-well plates at a density of 3,000 cells/well, and different concentrations of the PROTAC compounds 1-55 provided in the examples of the present disclosure and a positive control sample ARV-471 (source: Innochem) were prepared to treat cells, and the cells were treated at 37°C in a cell culture incubator with 5% CO2 for 6 days. Cell viability was detected using a CCK-8 kit (Beyotime, Product number: C0040) according to the manufacturer's instructions. […] Table 2 IC50 values for inhibition of the proliferation of T-47D cells by the PROTAC compounds provided by the present disclosure and the positive control sample

MCF-7 cells = assay: Inhibition of cell proliferation of MCF-7 cells (CCK-8, 9 days); conditions: treated for 9 days, CCK-8 kit (Table 6)
Procedure, shortened: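 MCF-7 cells seeded at 800 cells/well in DMEM with 10% FBS, exposed to a range of compound concentrations for 9 days at 37°C, 5% CO2. Viability read by CCK-8; IC50 derived for proliferation inhibition.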

ERα [1] = target: T1, ERα (Homo sapiens, UniProt P03372); assay: Degradation of ERα in MCF-7 cells (immunoblotting, 4 h)
T1 sequence (P03372 1-595): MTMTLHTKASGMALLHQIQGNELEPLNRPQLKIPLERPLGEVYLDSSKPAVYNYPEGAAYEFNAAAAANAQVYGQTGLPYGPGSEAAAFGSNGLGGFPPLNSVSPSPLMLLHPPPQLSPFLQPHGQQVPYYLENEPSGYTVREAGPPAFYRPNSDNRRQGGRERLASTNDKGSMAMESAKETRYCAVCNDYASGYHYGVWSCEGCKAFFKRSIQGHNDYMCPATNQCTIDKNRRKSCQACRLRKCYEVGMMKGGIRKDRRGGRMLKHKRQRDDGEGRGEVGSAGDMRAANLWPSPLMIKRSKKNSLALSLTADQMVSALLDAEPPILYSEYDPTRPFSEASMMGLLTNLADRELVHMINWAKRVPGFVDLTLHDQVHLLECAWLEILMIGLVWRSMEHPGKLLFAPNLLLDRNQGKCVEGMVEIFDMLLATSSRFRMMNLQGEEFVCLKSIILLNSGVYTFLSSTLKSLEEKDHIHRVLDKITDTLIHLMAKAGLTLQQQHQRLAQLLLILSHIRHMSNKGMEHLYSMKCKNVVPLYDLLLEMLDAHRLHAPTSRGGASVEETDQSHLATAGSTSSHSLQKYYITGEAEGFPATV
Procedure, shortened: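 MCF-7 cells treated 4 h at 37°C with compounds at 0.15-1000nM final. ERα in lysates measured by immunoblot, with band grayscale normalized to an internal reference protein. Degradation rate calculated against DMSO-treated control.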

ERα [2] = target: T1, ERα; assay: Degradation of ERα in T-47D cells (immunoblotting, 4 h); parameters: host or cells: T-47D
Procedure, shortened: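 T-47D cells were treated with compound (final 0.15-1000 nM, DMSO) for 4 h at 37°C, 5% CO2. Cells were lysed in RIPA buffer with protease inhibitor, and ERα protein in the cleared lysate was measured by immunoblotting.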

pIC50 (T-47D cells)	pIC50 (MCF-7 cells)	Degradation rate (%) of ERα in MCF-7 cells (ERα [1]; 1nM compound)	Degradation rate (%) of ERα in MCF-7 cells (ERα [1]; 10nM compound)	Degradation rate (%) of ERα in T-47D cells (ERα [2]; 1nM compound)	Degradation rate (%) of ERα in T-47D cells (ERα [2]; 10nM compound)	Compound
7.91	5.13	4%	11%	-37%	23%	O=C1CCC(N2Cc3cc4c(cc3C2=O)CCC2(CN(C(=O)C3CC5(CCN(c6ccc([C@@H]7c8ccc(O)cc8CC[C@@H]7c7ccccc7)cc6)CC5)C3)C2)O4)C(=O)N1 (stereo partly drawn) [A48]
8.02	4.96	9%	37%	17%	48%	O=C1CCC(N2Cc3cc4c(cc3C2=O)OC2(CC4)CN(C(=O)C3CC4(CCN(c5ccc([C@@H]6c7ccc(O)cc7CC[C@@H]6c6ccccc6)cc5)CC4)C3)C2)C(=O)N1 (stereo partly drawn) [A49]
8.38	5.39	11%	27%	24%	53%	O=C1CCC(N2Cc3cc4c(cc3C2=O)CCC2(CN(C(=O)C3CCN(c5ccc([C@@H]6c7ccc(O)cc7CC[C@@H]6c6ccccc6)cc5)CC3)C2)O4)C(=O)N1 (stereo partly drawn) [A50]
7.91	5.53	5%	15%	-10%	3%	O=C1CCC(N2Cc3cc4c(cc3C2=O)OC2(CC4)CN(C(=O)C3CCN(c4ccc([C@@H]5c6ccc(O)cc6CC[C@@H]5c5ccccc5)cc4)CC3)C2)C(=O)N1 (stereo partly drawn) [A51]
7.96	5.25	-22%	-33%	3%	2%	O=C1CCC(N2Cc3c(ccc4c3OCC43CCN(C(=O)C4CCN(c5ccc([C@@H]6c7ccc(O)cc7CC[C@@H]6c6ccccc6)cc5)CC4)CC3)C2=O)C(=O)N1 (stereo partly drawn) [A52]
8.41	> 9.59	10%	45%	37%	66%	O=C1CCC(N2Cc3cc4c(cc3C2=O)CCC2(CN(C3CCN(C5CCN(c6ccc([C@@H]7c8ccc(O)cc8CC[C@@H]7c7ccccc7)cc6)CC5)CC3)C2)O4)C(=O)N1 (stereo partly drawn) [A53]
8.21	> 9.59	40%	65%	15%	62%	O=C1CCC(N2Cc3c(ccc4c3OCC43CCN(C4CCN(C5CCN(c6ccc([C@@H]7c8ccc(O)cc8CC[C@@H]7c7ccccc7)cc6)CC5)CC4)CC3)C2=O)C(=O)N1 (stereo partly drawn) [A54]
8.45	7.04	21%	35%	19%	67%	O=C1CCC(N2Cc3cc4c(cc3C2=O)CCC2(CN(C(=O)CN3CCC5(CC3)CCN(c3ccc([C@@H]6c7ccc(O)cc7CC[C@@H]6c6ccccc6)cc3)CC5)C2)O4)C(=O)N1 (stereo partly drawn) [A69]
8.95	5.01	45%	65%	68%	88%	O=C1CCC(N2Cc3c(ccc4c3OCC43CCN(C4CCN(C(=O)C5CC6(CCN(c7ccc([C@@H]8c9ccc(O)cc9CC[C@@H]8c8ccccc8)cc7)CC6)C5)CC4)CC3)C2=O)C(=O)N1 (stereo partly drawn) [A85]
8.79	7.07	5%	32%	46%	74%	O=C1CCC(N2Cc3c(ccc4c3OCC43CCN(C(=O)C4CC5(CCN(c6ccc([C@@H]7c8ccc(O)cc8CC[C@@H]7c7ccccc7)cc6)CC5)C4)CC3)C2=O)C(=O)N1 (stereo partly drawn) [A86]
8.93	7.18	57%	54%	65%	72%	CC(C(=O)N1CCC2(CC1)COc1c2ccc2c1CN(C1CCC(=O)NC1=O)C2=O)N1CCC2(CCN(c3ccc([C@@H]4c5ccc(O)cc5CC[C@@H]4c4ccccc4)cc3)CC2)C1 (stereo partly drawn) [A88]
8.67	6.96	48%	72%	40%	70%	O=C1CCC(N2Cc3c(ccc4c3OCC43CCN(C4CCN(C(=O)C5(F)CCN(c6ccc([C@@H]7c8ccc(O)cc8CC[C@@H]7c7ccccc7)cc6)CC5)CC4)CC3)C2=O)C(=O)N1 (stereo partly drawn) [A89]
8.75	7.28	50%	72%	42%	79%	C[C@@H]1CC2(CCN(c3ccc([C@@H]4c5ccc(O)cc5CC[C@@H]4c4ccccc4)cc3)CC2)CN1CC(=O)N1CCC2(CC1)COc1c2ccc2c1CN(C1CCC(=O)NC1=O)C2=O (stereo partly drawn) [A90]
8.95	6.49	2%	33%	-1%	49%	CC(C)(C(=O)N1CCC2(CC1)COc1c2ccc2c1CN(C1CCC(=O)NC1=O)C2=O)N1CCC2(CCN(c3ccc([C@@H]4c5ccc(O)cc5CC[C@@H]4c4ccccc4)cc3)CC2)C1 (stereo partly drawn) [A91]
8.87	7.94	36%	66%	48%	66%	O=C1CCC(N2Cc3ccc4c(c3C2=O)OCC42CCN(C(=O)CN3CCC4(CCN(c5ccc([C@@H]6c7ccc(O)cc7CC[C@@H]6c6ccccc6)cc5)CC4)C3)CC2)C(=O)N1 (stereo partly drawn) [A92]

Compound	pIC50 (T-47D cells)	pIC50 (MCF-7 cells)	Degradation rate (%) of ERα in MCF-7 cells (ERα [1]; 1nM compound)	Degradation rate (%) of ERα in MCF-7 cells (ERα [1]; 10nM compound)	Degradation rate (%) of ERα in T-47D cells (ERα [2]; 1nM compound)	Degradation rate (%) of ERα in T-47D cells (ERα [2]; 10nM compound)
O=C1CCC(N2Cc3cc4c(cc3C2=O)CCC2(CN(C(=O)C3CCC5(CC3)CN(c3ccc([C@@H]6c7ccc(O)cc7CC[C@@H]6c6ccccc6)cc3)C5)C2)O4)C(=O)N1 (stereo partly drawn) [A46]	7.97	5.90	-22%	-26%	7%	33%
O=C1CCC(N2Cc3cc4c(cc3C2=O)OC2(CC4)CN(C(=O)C3CCC4(CC3)CN(c3ccc([C@@H]5c6ccc(O)cc6CC[C@@H]5c5ccccc5)cc3)C4)C2)C(=O)N1 (stereo partly drawn) [A47]	7.93	6.06	9%	14%	-10%	37%
O=C1CCC(N2Cc3c(ccc4c3OC3(CC4)CCN(C4CCN(C5CN(c6ccc([C@@H]7c8ccc(O)cc8CC[C@@H]7c7ccccc7)cc6)C5)CC4)CC3)C2=O)C(=O)N1 (stereo partly drawn) [A60]	7.74	6.08	-31%	-14%	11%	-1%
O=C1CCC(N2Cc3c(ccc4c3OCC43CCN(C4CCN(C5CN(c6ccc([C@@H]7c8ccc(O)cc8CC[C@@H]7c7ccccc7)cc6)C5)CC4)CC3)C2=O)C(=O)N1 (stereo partly drawn) [A61]	7.57	6.08	-4%	-19%	9%	-2%
